Results taken from article PMC4718940, “Preclinical studies of 5-fluoro-2′-deoxycytidine and tetrahydrouridine in pediatric brain tumors” (Journal of Neuro-Oncology, 2015).
Like-named read-outs stand apart in the source and are kept apart here.

Legend:
[1] = test system: Patient-derived xenograft of a human G3 medulloblastoma, TB-12-5950; test: 72 h dose response, CellTiter-Glo, human G3 MB PDX cells; assay type: cell-based; settings: Fig. 2b
[2] = test system: Trp53−/−, Cdkn2c−/− neurospheres; test: FdCyd growth inhibition, control neurospheres; assay type: cell-based, mouse; settings: Fig. 2c
HEPG2 cells = test: FdCyd growth inhibition, HEPG2 control cells; assay type: cell-based, human; settings: Fig. 2c
EP cells [3] = test: FdCyd wash-out experiment, EP; assay type: cell-based; settings: Mus musculus
Method: Myc1 and Myc2 G3 MB, EP, and CPC tumor cells (Supplementary Table 1) were plated in 96-well plates. After 24 h, 128 nL of a dilution series of a selected drug was transferred creating a final drug concentration of 0.5–9.3 µM. To assess the optimal exposure time, the drug was removed and replaced with fresh medium after 1, 3, 6, 10, 24, or 72 h (“wash-out”).
(§1) In both experiments, 72 h after drug addition to cells, we added 100 µL of CellTiter-Glo reagent (Promega), and we read the luminescence signal. Data analysis used GraphPad Prism software (Version 5.04).

EP cells [4] = test: Effect of deoxycytidine on FdCyd efficacy, 72 h, CellTiter-Glo; assay type: cell-based; settings: Mus musculus; FdCyd alone, 72 h exposure
Method: To test the effect of deoxycytidine on FdCyd efficacy, EP cells were plated in 96 well plates. After 24 h, FdCyd was added at final concentrations ranging from 0.1 nM to 50 μM alone or together with fixed concentration of deoxycytidine (Sigma) of 0.0122, 0.195, 6.25 or 100 μM.
as §1

[5] = Plasma pharmacokinetics in non-tumor-bearing CD1 nude mice; assay type: in vivo, mouse; settings: for AUC(0-inf): read-out: plasma exposure (AUC0-Inf), mean ± SD
Method: Once a drug passed the Discovery Phase it was moved to the Pre-Clinical Phase, which included PK and PD studies (Fig. 1). The details of the plasma PK and cerebral microdialysis studies are provided in the Supplemental Materials.
An initial, detailed plasma PK study was performed in non–tumor-bearing CD1 nude mice to define drug disposition in our mouse model of interest, determine the plasma systemic exposure, and when possible, to compare the systemic exposure in the mouse with that achievable in patients at clinically relevant dosages. Dosing solutions were prepared in 5% dextrose for injection at concentrations providing a standard final dosing volume of 10 mL/kg (i.e., 2.5 mg/mL FdCyd and 10 mg/mL THU). Plasma samples were separated by centrifugation and stored at −80°C until analysis using a sensitive and specific liquid chromatography–tandem mass spectrometry (LC-MS/MS) method to determine FdCyd concentrations. Plasma samples were collected by using a sparse sampling design in which 2 - 3 blood samples per mouse were collected in tubes containing zebularine (final concentration in blood sample, 1 mg/mL) to inhibit cytidine deaminase activity in vitro.
An appropriate pharmacokinetic model was fit to the observed concentration-time data obtained from the initial PK studies (IP and IV administration) by using non-linear mixed-effect modeling (NONMEM 7.2, ICON Development Solutions). Using D-optimality implemented in ADAPT 5, we use the data from the plasma pharmacokinetic study to define a pharmacokinetic limited sampling model (LSM), which will be used in subsequent microdialysis studies.

[6] = test system: mouse G3 MB tumorspheres (Myc1, Myc2); test: In vitro proliferation/cell cycle, BrdU FACS; assay type: cell-based; settings: 4 nM FdCyd alone, compared to DMSO-treated cells
Excerpt: (§2) See Supplementary Material for more details.
(§3) Tumors were fixed in 10% formalin.

[7] = test system: mouse G3 MB tumorspheres (Myc1, Myc2); test: In vitro apoptosis, Annexin V and DAPI FACS; assay type: cell-based; settings: 4 nM FdCyd alone, 24, 48, 72 h, compared to DMSO-treated cells
Excerpt: as §2, §3

[8] = test system: Trp53−/−, Cdkn2c−/− neurospheres; test: In vitro cell cycle and apoptosis, control neurospheres; assay type: cell-based, mouse; settings: 4 nM FdCyd
Excerpt: as §2, §3

CPC tumors = test: In vivo apoptosis, Caspase 3 immunohistochemistry, CPC
Method: (§4) To assess apoptosis and proliferation in vivo, G3 MB, EP, and CPC tumors were isolated from mice 3, 8, or 24 h after treatment with compound or vehicle, fixed in 10 % formalin, and sections were immunostained with antibodies to Caspase 3 (apoptosis) or Ki67 (proliferation).
(§5) In vivo apoptosis and proliferation were performed on G3 MB, EP, and CPC tumors isolated from mice 3, 8, or 24 hr after treatment with compound or vehicle (saline). Tumors were fixed in 10% formalin. Sections (4-micron) were immunostained with antibodies to Caspase 3 (CP229C, BioCare Medical, Concorde, CA) to detect apoptotic cells, or Ki67 (ThermoShandon, RM9106) to detect proliferation. The number of positive cells for each stain was normalized to the total number of cells.
(§6) Mice bearing G3 MB, EP, or CPC tumors were harvested 3, 8, or 24 hr after IP injection of vehicle (V) or FdCyd + THU (FdCyd). Fixed brains were sliced and stained for caspase 3. The percentage of positive cells was calculated based on total number of cells. SD= standard deviation.

G3 MB tumors [9] = test: In vivo proliferation, Ki67 immunohistochemistry, G3 MB
Method: as §4, §5
Mice bearing G3 MB, EP, or CPC tumors were harvested 3, 8, or 24 hr after IP injection of vehicle (V) or FdCyd + THU (FdCyd). Fixed brains were sliced and stained for Ki67. The percentage of positive cells was calculated based on total number of cells.

G3 MB tumors [10] = test: In vivo apoptosis, Caspase 3 immunohistochemistry, G3 MB
Method: as §4, §5, §6

## Nc1nc(=O)n([C@H]2C[C@H](O)[C@@H](CO)O2)cc1F [FdCyd, 5-fluoro-2′-deoxycytidine]
[1]
  EC50: 0.001 µM
[2]
  sensitivity to FdCyd (growth inhibition): showed sensitivity
HEPG2 cells
  sensitivity to FdCyd (growth inhibition): not
EP cells [3]; 1 h exposure then wash-out, read at 72 h, read-out: EC50 after 1 h FdCyd exposure
  EC50: 0.022 ± 0.008 µM
EP cells [3]; 72 h, wash-out, 1st of 4 values listed for the remaining time points (3, 6, 10, 24, 72 h), read-out: EC50, longer exposure
  EC50: 0.017 µM
EP cells [3]; 72 h, wash-out, 2nd of 4 values listed for the remaining time points (3, 6, 10, 24, 72 h), read-out: EC50, longer exposure
  EC50: 0.013 µM
EP cells [3]; 72 h, wash-out, 3rd of 4 values listed for the remaining time points (3, 6, 10, 24, 72 h), read-out: EC50, longer exposure
  EC50: 0.003 µM
EP cells [3]; 72 h, wash-out, 4th of 4 values listed for the remaining time points (3, 6, 10, 24, 72 h), read-out: EC50, longer exposure
  EC50: 0.0007 µM
EP cells [4]
  EC50: 0.05 µM
[5]; CD1 nude mice 25 mg/kg vs humans at RP2D 100 mg/m^2, human PK ref 26
  FdCyd exposure in mice relative to humans: approximately 4 times higher
[5]; CD1 nude, mouse, plasma, FdCyd 25 mg/kg with THU 100 mg/kg, IP
  AUC(0-inf): 112 ± 6.55 µM·h
[5]; CD1 nude, mouse, plasma, FdCyd 25 mg/kg with THU 100 mg/kg, IV
  AUC(0-inf): 114 ± 4.77 µM·h
[5]; CD1 nude, mouse, plasma, FdCyd 25 mg/kg with THU 100 mg/kg, NONMEM, IV and IP data, read-out: systemic clearance, population mean (standard error of estimation) (converted)
  clearance: 0.9 L/h/kg
[5]; CD1 nude, mouse, plasma, FdCyd 25 mg/kg with THU 100 mg/kg, NONMEM, IV and IP data, read-out: volume of distribution, population mean (standard error of estimation)
  Vd: 0.62 L/kg
[5]; IP 6 mg/kg FdCyd with 100 mg/kg THU, confirmatory PK study
  murine plasma exposure compared with RP2D in humans: comparable
[6]
  cell cycle distribution (BrdU): increased the number of cells in the G0/G1phase
[7]
  number of apoptotic cells (Annexin V): increased
[8]
  effect on cell cycle and apoptosis of control neurospheres: without affecting control neurospheres
CPC tumors; 3 hr after IP injection of FdCyd + THU, vehicle 3.963
  Caspase-3 % of positive cells: 10.63%
CPC tumors; 8 hr after IP injection of FdCyd + THU, vehicle 4.917
  Caspase-3 % of positive cells: 2.297%
CPC tumors; 24 hr after IP injection of FdCyd + THU, vehicle 3.493
  Caspase-3 % of positive cells: 6.797%
G3 MB tumors [9]; 3 hr after IP injection of FdCyd + THU, vehicle 87.77
  Ki67 % of positive cells: 84.97%
G3 MB tumors [9]; 8 hr after IP injection of FdCyd + THU, vehicle 78.11
  Ki67 % of positive cells: 76.50%
G3 MB tumors [9]; 24 hr after IP injection of FdCyd + THU, vehicle 85.15
  Ki67 % of positive cells: 77.15%
G3 MB tumors [10]; 3 hr after IP injection of FdCyd + THU, vehicle 12.37
  Caspase-3 % of positive cells: 19.88%
G3 MB tumors [10]; 8 hr after IP injection of FdCyd + THU, vehicle 8.945
  Caspase-3 % of positive cells: 11.04%
G3 MB tumors [10]; 24 hr after IP injection of FdCyd + THU, vehicle 9.419
  Caspase-3 % of positive cells: 10.38%
